From ChEMBL document CHEMBL5724558, “Image-based profiling of drug vulnerabilities in CRC organoids” (2024) come the findings set out here.

Holding throughout (format): functional, Homo sapiens
What all share (design): dose or concentration left out as unconfirmed

Assay [1] concerns Colon cancer organoid. Briefly: Image-based profiling of donated chemical probes and chemogenomic kinase set in O09 CRC organoid. Image analysis is performed on the sum area metric, and the data were normalized to the DMSO control. After imaging the organoid viability is measured using the OneGloEX Luciferase Assay System. The normalized viability data and sum area are reported.

Assay [2] relates to Colon cancer organoid. Briefly: Image-based profiling of donated chemical probes and chemogenomic kinase set in O21 CRC organoid. Image analysis is performed on the sum area metric, and the data were normalized to the DMSO control. After imaging the organoid viability is measured using the OneGloEX Luciferase Assay System. The normalized viability data and sum area are reported.

Assay [3] concerns Colon cancer organoid. Briefly: Image-based profiling of donated chemical probes and chemogenomic kinase set in O06 CRC organoid. Image analysis is performed on the sum area metric, and the data were normalized to the DMSO control. After imaging the organoid viability is measured using the OneGloEX Luciferase Assay System. The normalized viability data and sum area are reported.

Where “and” joins values, the source holds several entries; their conditions need not be identical. Identical values can stand only once.

Turning to `C=CC(=O)Nc1ccc2[nH]c(=O)n(C3CCN(Cc4ccc(-c5ccc6c(c5)NC(=O)CO6)cc4)CC3)c2c1` [RL2578], the “Cell Viability” value was 79.7893% and 107.853% in the assay with Colon cancer organoid [1] (Replication number 1); 131.51% and 111.42% in the assay on Colon cancer organoid [1] (Replication number 2); 100.847% and 118.952% with Colon cancer organoid [2] (Replication number 1); 88.0648% and 119.816% with Colon cancer organoid [2] (Replication number 2); 82.8871% and 90.6073% in the assay with Colon cancer organoid [3] (Replication number 1); 145.126% and 114.128% in the assay on Colon cancer organoid [3] (Replication number 2).

`CNc1cc(Oc2cc(C(=O)Nc3cc(N4CCN(C)CC4)cc(C(F)(F)F)c3)ccc2C)ncn1`: the “Cell Viability” value with Colon cancer organoid [1] (Replication number 1) is 67.5725% and 54.8543%; in the assay with Colon cancer organoid [1] (Replication number 2), 89.2328% and 78.5558%; with Colon cancer organoid [2] (Replication number 1) it was 91.6844% and 105.366%; in the assay with Colon cancer organoid [2] (Replication number 2), 86.288% and 119.755%; in the assay with Colon cancer organoid [3] (Replication number 1) it was 159.785% and 126.415%; in the assay on Colon cancer organoid [3] (Replication number 2) it was 134.323% and 110.437%.

Regarding `Cc1c(Nc2ccc(S(=O)(=O)N3CCN(C)CC3)cc2F)nc2ccc(-c3cnn(C4CC4)c3)cn2c1=O`, the “Cell Viability” value with Colon cancer organoid [1] (Replication number 1) is 191.117% and 102.241%; in the assay with Colon cancer organoid [1] (Replication number 2), 170.931% and 98.6379%; in the assay on Colon cancer organoid [2] (Replication number 1), 111.388% and 118.746%; with Colon cancer organoid [2] (Replication number 2), 91.8423% and 96.6587%; with Colon cancer organoid [3] (Replication number 1) it was 155.776% and 116.215%; in the assay with Colon cancer organoid [3] (Replication number 2), 128.897% and 94.1583%.

Regarding `CNC(=O)c1ccccc1Nc1cc(Nc2ccc(N3CCOCC3)cc2OC)ncc1C(F)(F)F` [VS-4718], the “Cell Viability” value in the assay on Colon cancer organoid [1] (Replication number 1) is 16.1966% and 32.4497%; in the assay on Colon cancer organoid [1] (Replication number 2), 15.3454% and 34.2982%; in the assay on Colon cancer organoid [2] (Replication number 1), 46.4172% and 62.2044%; in the assay with Colon cancer organoid [2] (Replication number 2), 35.2448% and 60.1632%; in the assay with Colon cancer organoid [3] (Replication number 1), 26.6369% and 55.3846%; in the assay on Colon cancer organoid [3] (Replication number 2), 24.9671% and 46.6122%.

Take `CCCOc1ccn2c(C(C)=O)cc(-c3ccccc3S(C)(=O)=O)c2c1`: the “Cell Viability” value in the assay with Colon cancer organoid [1] (Replication number 1) is 82.358% and 82.5348%; with Colon cancer organoid [1] (Replication number 2), 234.066% and 124.865%; in the assay on Colon cancer organoid [2] (Replication number 1), 106.031% and 126.388%; in the assay on Colon cancer organoid [2] (Replication number 2), 99.7688% and 110.084%; with Colon cancer organoid [3] (Replication number 1), 138.616% and 118.389%; in the assay on Colon cancer organoid [3] (Replication number 2), 149.88% and 120.685%.

`CCC(F)(F)c1cc(N2CCC(S(C)(=O)=O)CC2)nc2sc(C(N)=O)c(N)c12` [BI-605906]: the “Cell Viability” value in the assay with Colon cancer organoid [1] (Replication number 1) was 110.631% and 99.0371%; in the assay with Colon cancer organoid [1] (Replication number 2), 105.468% and 104.877%; with Colon cancer organoid [2] (Replication number 1) it was 102.215% and 104.22%; with Colon cancer organoid [2] (Replication number 2) it was 98.7028% and 111.659%; in the assay with Colon cancer organoid [3] (Replication number 1), 130.001% and 116.599%; with Colon cancer organoid [3] (Replication number 2) it was 81.7833% and 117.011%.

`COc1ccc(Cn2ccc3ccc(C(=O)NO)cc32)cc1`: the “Cell Viability” value was 110.805% and 94.5904% in the assay on Colon cancer organoid [1] (Replication number 1); 117.665% and 84.3839% in the assay on Colon cancer organoid [1] (Replication number 2); 103% and 112.867% in the assay with Colon cancer organoid [2] (Replication number 1); 100.715% and 96.6587% in the assay with Colon cancer organoid [2] (Replication number 2); 150.267% and 98.5772% in the assay with Colon cancer organoid [3] (Replication number 1); 160.829% and 118.056% in the assay with Colon cancer organoid [3] (Replication number 2).

In the case of `Cc1cc2c(cc1N1C(=O)c3cccc4c(CCCO)ccc(c34)C1=O)n(C)c(=O)n2C`, the “Cell Viability” value was 57.3322% and 75.8114% in the assay with Colon cancer organoid [1] (Replication number 1); 118.076% and 83.8137% with Colon cancer organoid [1] (Replication number 2); 93.3541% and 102.286% in the assay on Colon cancer organoid [2] (Replication number 1); 93.8629% and 86.4558% with Colon cancer organoid [2] (Replication number 2); 68.0185% and 75.3826% with Colon cancer organoid [3] (Replication number 1); 71.5666% and 43.0165% with Colon cancer organoid [3] (Replication number 2).

As to `C=CC(=O)Nc1ccc2[nH]c(=O)n(C3CCN(Cc4ccc(-c5nc6cc[nH]c(=O)c6cc5-c5ccccc5)cc4)CC3)c2c1` [Borussertib], the “Cell Viability” value in the assay on Colon cancer organoid [1] (Replication number 1) is 27.7912% and 48.9559%; with Colon cancer organoid [1] (Replication number 2), 42.376% and 51.9429%; in the assay with Colon cancer organoid [2] (Replication number 1), 72.0097% and 96.5806%; with Colon cancer organoid [2] (Replication number 2), 66.1245% and 78.518%; with Colon cancer organoid [3] (Replication number 1), 53.8202% and 93.0364%; in the assay on Colon cancer organoid [3] (Replication number 2) it was 55.5643% and 106.199%.
